Reference: patent US5567704A, “R-enatiomerically pure hydroxylated xanthine compounds to treat baldness” (priority 1995, dated 1996)

Tests used:
[1] = endotoxin induced lethality in mice (survival); type: in vivo, mouse; conditions: mouse, in vivo, ip; CT1501R alone, no LPS, ten mice, same schedule
Experimental: (§1) Animals were treated with 10 μg/gm of LPS (i.v.) Immediately following the LPS (t=0), 2 hrs after the LPS (t=2) or 4 hrs following LPS (t=4) the mice were treated with their first treatment of CT1501R (100 mg/kg, i.p.). The mice were treated with CT1501R three times per day thereafter, and animal survival was monitored.
(§2) This example illustrates the effect of CT1501R on survival in mice given a lethal dose of endotoxin. We determined if CT1501R protects against endotoxin induced lethality in a murine model. Septic shock was modeled by endotoxin injection of 6-8 week old female Balb/c mice similar to previously published reports (Ashkenazi et al. Proc. Natl. Acad. Sci. U.S.A. 88: 10535-10539, 1991.) under protocols approved by the Animal Use Committee of the Biomembrane Institute, Seattle, Wash. Animals were injected intravaneously (i.v.) with an approximate LD100 dose (10 μg) of Salmonella abortus equi-derived endotoxin (Sigma Chemical Co., L-1887) in phosphate buffered saline (PBS). […] Control mice were injected at the same times with a similar volume of vehicle control (PBS). Survival was followed for at least 72 hours.
(§3) Ten mice were treated each with PBS alone or CT1501R alone on the same schedule as the experimental mice. […] Endotoxin survival data were summarized from a total of six (6) independent experiments. Summary Table 1 details the results of each of the six experiments. In FIG. 5, each time point represents a minimum of three (3) experiments comprising at least twenty (20) mice per group. A probability analysis of the survival data using a Fisher's Exact One Tailed Test is given as Table 3. Significant protection was conferred if CT1501R was administered immediately after the LPS treatment. The cumulative percent survival at 72 hours post LPS treatment was 60% compared to 7% for the LPS-only treated animals (p=<0.0005; Table 3).

[2] = system: Balb/c mice given a lethal dose of endotoxin; test: endotoxin induced lethality in mice (survival); type: in vivo, mouse; conditions: for cumulative percent survival: 72 hours post LPS
Experimental: as §1, §2, §3

thymocytes = test: thymocyte costimulator assay (ConA and IL-1α or IL-2); type: cell-based, mice; conditions: drug added two hours prior, FIG. 3
Experimental: A thymocyte costimulator assay is conducted to evaluate the inventive compounds to inhibit activation and proliferation of thymocytes caused by stimulation with Con A and interleukin-1 (IL-1), or […]. Thymuses are obtained from mice (e.g., female Balb/C mice) and the thymuses are removed and dissociated into culture media (e.g., RPMI 1640 without serum supplementation). The dissociated thymus tissue and cell suspension is transferred to centrifuge tubes and allowed to settle, washed with HBSS and resuspended in serum-supplemented culture media (e.g., RPMI 1640 with 10% fetal calf serum). Any contaminating red cells are lysed, and viable cells are resuspended and counted. Thymocytes are plated (e.g., 96-well plates at a density of 2×10^5 cells/well) and a stimulating agent, such as Con A, IL-1 (e.g., IL-1α) or IL-2 is added to the well. The cells are incubated for 4 days at 37° C. On the fourth day, the cells are pulsed with tritiated thymidine and cell proliferation determined. Inventive compounds are added at the time of stimulating agent addition.
CT1501R was added to the cells at the doses indicated two hours prior to activation with ConA and IL-1α or IL-2. Background counts were less than 200 cpm.

smooth muscle cell = test: smooth muscle proliferation stimulated by PDGF and IL-1; type: cell-based
Source text: CT1501R and PTX were separately added to the cells two hours prior to activation with PDGF and IL-1.

IL-1α = test: mouse plasma IL-1α ELISA after endotoxin; type: in vivo; conditions: for Plasma IL-1: LPS + CT-1501R
Experimental: For ELISA measurements of cytokine levels in plasma, blood was collected by retro-orbital or cardiac puncture of anesthetized mice, immediately centrifuged and the EDTA plasma stored at -70° C. Particulate free plasma was thawed on ice and cytokine levels determined utilizing commercial ELISA assays with normal mouse plasma used to generate standard curves. Murine tumor necrosis factor-α and interleukin-1αkits were purchased from Genzyme (Cambridge, Mass.) and Endogen (Boston, Mass.), respectively. Each data point was an average of two ELISA measurements made from EDTA […] pooled from three mice. The data summarized in Table 3 were compiled from two independent experiments; data from Table 4 and 5 were from single experiments of three mice per data point.
In particular, peak levels observed at 6, 12 and 18 hours post endotoxin were decreased 1.2, 4.3 and 3.2-fold, respectively. Finally, IL-6 measurements were made in a similar manner (Table 6, FIG. 8).

## C[C@@H](O)CCCCn1c(=O)c2c(ncn2C)n(C)c1=O [CT1501R, (R)-1-(5-hydroxyhexyl)-3,7-dimethylxanthine]
[1]
  survival: 100%
[2]; CT1501R four hours after LPS
  cumulative percent survival: 37%
[2]; CT1501R immediately after LPS
  cumulative percent survival: 60%
[2]; CT1501R two hours after LPS
  cumulative percent survival: 55%
[2]; CT1501R alone, no LPS, ten mice, same schedule
  adverse effects: no adverse effects noted
[2]; Expt. 1, CT-1501R t = 0 Hr post LPS, 24 Hr post LPS
  Survival (Number Surviving/Total): 4/5
[2]; Expt. 1, CT-1501R t = 0 Hr post LPS, 48 Hr post LPS
  Survival (Number Surviving/Total): 4/5
[2]; Expt. 1, CT-1501R t = 0 Hr post LPS, 72 Hr post LPS
  Survival (Number Surviving/Total): 4/5
[2]; Expt. 1, CT-1501R t = 2 Hr post LPS, 24 Hr post LPS
  Survival (Number Surviving/Total): 4/5
[2]; Expt. 1, CT-1501R t = 2 Hr post LPS, 48 Hr post LPS
  Survival (Number Surviving/Total): 3/5
[2]; Expt. 1, CT-1501R t = 2 Hr post LPS, 72 Hr post LPS
  Survival (Number Surviving/Total): 3/5
[2]; Expt. 2, CT-1501R t = 0 Hr post LPS, 24 Hr post LPS
  Survival (Number Surviving/Total): 5/5
[2]; Expt. 2, CT-1501R t = 0 Hr post LPS, 48 Hr post LPS
  Survival (Number Surviving/Total): 5/5
[2]; Expt. 2, CT-1501R t = 0 Hr post LPS, 72 Hr post LPS
  Survival (Number Surviving/Total): 5/5
[2]; Expt. 2, CT-1501R t = 2 Hr post LPS, 24 Hr post LPS
  Survival (Number Surviving/Total): 5/5
[2]; Expt. 2, CT-1501R t = 2 Hr post LPS, 48 Hr post LPS
  Survival (Number Surviving/Total): 5/5
[2]; Expt. 2, CT-1501R t = 2 Hr post LPS, 72 Hr post LPS
  Survival (Number Surviving/Total): 5/5
[2]; Expt. 3, CT-1501R t = 4 Hr post LPS, 24 Hr post LPS
  Survival (Number Surviving/Total): 5/5
[2]; Expt. 3, CT-1501R t = 4 Hr post LPS, 48 Hr post LPS
  Survival (Number Surviving/Total): 3/5
[2]; Expt. 3, CT-1501R t = 4 Hr post LPS, 72 Hr post LPS
  Survival (Number Surviving/Total): 3/5
[2]; Expt. 4, CT-1501R t = 4 Hr post LPS, 24 Hr post LPS
  Survival (Number Surviving/Total): 7/10
[2]; Expt. 4, CT-1501R t = 4 Hr post LPS, 48 Hr post LPS
  Survival (Number Surviving/Total): 5/10
[2]; Expt. 4, CT-1501R t = 4 Hr post LPS, 72 Hr post LPS
  Survival (Number Surviving/Total): 5/10
[2]; Expt. 5, CT-1501R t = 0 Hr post LPS, 24 Hr post LPS
  Survival (Number Surviving/Total): 9/10
[2]; Expt. 5, CT-1501R t = 0 Hr post LPS, 48 Hr post LPS
  Survival (Number Surviving/Total): 7/10
[2]; Expt. 5, CT-1501R t = 0 Hr post LPS, 72 Hr post LPS
  Survival (Number Surviving/Total): 3/10
[2]; Expt. 5, CT-1501R t = 2 Hr post LPS, 24 Hr post LPS
  Survival (Number Surviving/Total): 5/10
[2]; Expt. 5, CT-1501R t = 2 Hr post LPS, 48 Hr post LPS
  Survival (Number Surviving/Total): 3/10
[2]; Expt. 5, CT-1501R t = 2 Hr post LPS, 72 Hr post LPS
  Survival (Number Surviving/Total): 3/10
[2]; Expt. 5, CT-1501R t = 4 Hr post LPS, 24 Hr post LPS
  Survival (Number Surviving/Total): 7/10
[2]; Expt. 5, CT-1501R t = 4 Hr post LPS, 48 Hr post LPS
  Survival (Number Surviving/Total): 4/10
[2]; Expt. 5, CT-1501R t = 4 Hr post LPS, 72 Hr post LPS
  Survival (Number Surviving/Total): 2/10
[2]; Expt. 6, CT-1501R t = 4 Hr post LPS, 24 Hr post LPS
  Survival (Number Surviving/Total): 3/10
[2]; Expt. 6, CT-1501R t = 4 Hr post LPS, 48 Hr post LPS
  Survival (Number Surviving/Total): 3/10
[2]; Expt. 6, CT-1501R t = 4 Hr post LPS, 72 Hr post LPS
  Survival (Number Surviving/Total): 3/10
[2]; drug simultaneously or two hours after lethal LPS, FIGS. 15 and 16
  survival compared with published results of Genentech's bifunctional TNF receptor: consistently was better at improving survival than Genentech's TNF receptor
[2]; n = 3 expts, CT-1501R t = 0 Hr post LPS, 24 Hr post LPS
  Cumulative survival (Number Surviving/Total): 18/20
[2]; n = 3 expts, CT-1501R t = 0 Hr post LPS, 48 Hr post LPS
  Cumulative survival (Number Surviving/Total): 16/20
[2]; n = 3 expts, CT-1501R t = 0 Hr post LPS, 72 Hr post LPS
  Cumulative survival (Number Surviving/Total): 12/20
[2]; n = 3 expts, CT-1501R t = 2 Hr post LPS, 24 Hr post LPS
  Cumulative survival (Number Surviving/Total): 14/20
[2]; n = 3 expts, CT-1501R t = 2 Hr post LPS, 48 Hr post LPS
  Cumulative survival (Number Surviving/Total): 11/20
[2]; n = 3 expts, CT-1501R t = 2 Hr post LPS, 72 Hr post LPS
  Cumulative survival (Number Surviving/Total): 11/20
[2]; n = 4 expts, CT-1501R t = 4 Hr post LPS, 24 Hr post LPS
  Cumulative survival (Number Surviving/Total): 22/35
[2]; n = 4 expts, CT-1501R t = 4 Hr post LPS, 48 Hr post LPS
  Cumulative survival (Number Surviving/Total): 15/35
[2]; n = 4 expts, CT-1501R t = 4 Hr post LPS, 72 Hr post LPS
  Cumulative survival (Number Surviving/Total): 13/35
thymocytes
  inhibition of thymocyte proliferation: inhibited thymocyte proliferation in a dose-response manner
Smooth muscle cell; PDGF and IL-1, FIG. 4
  activity compared with PTX, smooth muscle cell proliferation: more active than PTX
Smooth muscle cell; PDGF and IL-1, drug added two hours prior, FIG. 4
  inhibition of smooth muscle cell proliferation: inhibited smooth muscle cell proliferation at the higher doses tested
IL-1α; 6 hours post endotoxin
  fold decrease of plasma IL-1α: 1.2 fold
IL-1α; 12 hours post endotoxin
  fold decrease of plasma IL-1α: 4.3 fold
IL-1α; 18 hours post endotoxin
  fold decrease of plasma IL-1α: 3.2 fold
IL-1α; 0 hours post LPS
  Plasma IL-1: 0 pg/mL
IL-1α; 0.17 hours post LPS
  Plasma IL-1: 0 pg/mL
IL-1α; 0.5 hours post LPS
  Plasma IL-1: 22 pg/mL
IL-1α; 1 hour post LPS
  Plasma IL-1: 10.8 pg/mL
IL-1α; 3 hours post LPS
  Plasma IL-1: 33.2 pg/mL
IL-1α; 6 hours post LPS
  Plasma IL-1: 133 pg/mL
IL-1α; 12 hours post LPS
  Plasma IL-1: 32.3 pg/mL
IL-1α; 18 hours post LPS
  Plasma IL-1: 46.7 pg/mL
IL-1α; 24 hours post LPS
  Plasma IL-1: 43.5 pg/mL
IL-1α; 36 hours post LPS
  Plasma IL-1: 18.8 pg/mL
IL-1α; 48 hours post LPS
  Plasma IL-1: 0 pg/mL
